From patent US20240138406A1, “ANTIMICROBIAL PEPTIDE SCYAMPCIN44-63 AND APPLICATION THEREOF” (Xiamen University, priority 2021, published 2024)
No end group written: not given here.

Tested on: Enterobacter cloacae QZ18103
Conditions: QZ18103, 24 h

## GKKKKRNMMKTKEPGIIFFF-NH2 [Scyampcin44-63]
  MBC: 3 to 6 µM
